# Marks after values point to notes of the source that are not given here.
# Assays:
# Apc [+/−] 1638NCOL cells [1] = experiment: Cytostatic growth arrest (cell population doubling); type: cell-based, mouse; details: for No. of population doublings: mean ± SD, n = 3
# Procedure: (§1) Differential susceptibility of C57COL (wild type Ape [+/+]), the control cell line, and 1638NCOL (Apc [+/−]) to growth inhibition by mechanistically distinct prototype chemopreventive test compounds was evaluated in a conventional cell survival assay, while the preventive efficacy of the test compounds was evaluated using optimized quantitative flow cytometry-based cell cycle analysis. Optimization of flow cytometry based cell cycle analysis is published (7, 8, 10, 11) and is needed in view of batch-to-batch variations in commercially available fluorescein isothiocyanate-conjugated antibodies.
# (§2) Selective susceptibility of Ape [+/−] 1638NCOL cells to a prototype chemopreventive agent sulindac (SUL) was examined by comparing its effect on Ape [+/+] C57COL and Ape [+/−] 1638NCOL cells. The cytostatic growth arrest response, evidenced by a decrease in cell population doubling, was about 2-3 fold higher in Ape [+/−] cells as compared to that of Ape [+/+] cells (Table 3).
# The dose response and efficacy studies involved treatment of cell cultures with five log μM concentrations of each compound (0.01, 0.1, 1.0, 10.0 and 100.0 μM). […] The cytostatic effect of treatment with high doses (100 μM) was associated with down regulated cell population doubling, altered aneuploid G0/G1: S+G2/M ratio, and decreased number of anchorage independent colonies (Table 4).
# (§3) The cell lines were characterized for expression of epithelium specific proteins (cytokeratins), Apc gene product (full length, as opposed to truncated forms which are differentially reactive to carboxyl and amino terminal Apc antibodies), and cytodifferentiation (MUC1, acid mucopolysaccharide, alkaline phosphatase) using standard assays for immunocytochemical analysis. The growth kinetics were determined based on the time-dependent increase in the number of viable cells relative to the initial seeding density. The cell cycle progression and anchorage-independent growth were determined using fluorescence assisted flow cytometry and colony forming assays, respectively, as previously described (4, 7-11). The expression profile of specific gene products (proteins) involved in the regulation of cell cycle progression, apoptosis, and differentiation was also quantified using recently optimized cellular epifluorescence assays (10, 11).
# Apc [+/−] 1638NCOL cells [2] = experiment: Dose response in conventional cell survival assay (growth arrest, toxicity); type: cell-based, mouse; set-up: key to Toxicity: +: Toxicity, surviving cell population lower than initial seeding density; details: for No effect: 0.01 μM
# Procedure: as §1
# The dose response and efficacy studies involved treatment of cell cultures with five log μM concentrations of each compound (0.01, 0.1, 1.0, 10.0 and 100.0 μM).
# Apc [+/−] 1638NCOL cells [3] = experiment: Flow cytometry-based aneuploid cell cycle progression analysis; set-up: species or system mouse; details: for G0/G1:S + G2/M ratio (aneuploid cell cycle progression): mean ± SD, n = 3
# Procedure: Aneuploidy: Fluorescence assisted cell sorting and flow cytometry of cells stained with DNA binding fluorescent dyes. Diploid and aneuploid cells accumulate as distinct peaks on the DNA histograms obtained from flow cytometric analysis.
# as §1, §3
# Apc [+/−] 1638NCOL cells [4] = experiment: Anchorage-independent growth (soft agar colony formation); type: cell-based, mouse; details: 100 μM
# Text: Anchorage-independent growth: The ‘soft’ agar growth assay monitors the ability of cells to form non adherant colonies. Single cells suspended in 0.33% agar are overlaid on a basement matrix. These cultures are maintained for about 10-14 days and resulting colonies are counted.
# as §3
# C57COL (Apc [+/+]) cells = experiment: Cytostatic growth arrest (cell population doubling), control cell line; type: cell-based, mouse
# Procedure: as §1, §2, §3
Structure (SMILES),% Change in no. of population doublings versus EtOH control (Apc [+/−] 1638NCOL cells [1]; 1 μM),No. of population doublings (Apc [+/−] 1638NCOL cells [1]; 1 μM),% Change in no. of population doublings versus EtOH control (Apc [+/−] 1638NCOL cells [1]; 10 μM) [%],No. of population doublings (Apc [+/−] 1638NCOL cells [1]; 10 μM),No effect (Apc [+/−] 1638NCOL cells [2]),Growth arrest (%) (Apc [+/−] 1638NCOL cells [2]; 1 μM (Table 8)),Growth arrest (%) (Apc [+/−] 1638NCOL cells [2]; 10 μM (Table 8)),Toxicity (Apc [+/−] 1638NCOL cells [2]; 100 μM),Growth arrest (%) (Apc [+/−] 1638NCOL cells [2]; 0.1-10 μM),G0/G1:S + G2/M ratio (aneuploid cell cycle progression) (Apc [+/−] 1638NCOL cells [3]; 1 μM),Anchorage-independent colonies (Apc [+/−] 1638NCOL cells [4]),% Change in no. of population doublings versus EtOH control (Apc [+/−] 1638NCOL cells [1]; 100 μM) [%],Cell Population Doubling (Apc [+/−] 1638NCOL cells [1]; 100 μM),No. of population doublings (Apc [+/−] 1638NCOL cells [1]; 100 μM),Growth arrest (%) (Apc [+/−] 1638NCOL cells [2]; 100 μM),Growth arrest (%) (Apc [+/−] 1638NCOL cells [2]; 100 μM (Table 8)),Cell cycle phase (Apc [+/−] 1638NCOL cells [3]; 1 μM),Aneuploid G0/G1:S + G2/M ratio (Apc [+/−] 1638NCOL cells [3]; 100 μM),Cell cycle phase (Apc [+/−] 1638NCOL cells [3]; 100 μM),G0/G1:S + G2/M ratio (aneuploid cell cycle progression) (Apc [+/−] 1638NCOL cells [3]; 100 μM),other results
"NCCCNCCSP(=O)(O)O [AMF, Amifostine]",−17.2%,8.2 ± 0.2,−37.4,6.2 ± 0.3,+ (No effect <20% inhibition of surviving cell population),25,40,+,25-40%,9.6 ± 0.7,,,,,,,,,,,Cell cycle phase (Apc [+/−] 1638NCOL cells [3]; 10 μM): G1 arrest; G0/G1:S + G2/M ratio (aneuploid cell cycle progression) (Apc [+/−] 1638NCOL cells [3]; 10 μM): 10.9 ± 0.6^c
"CC1=C(/C=C/C(C)=C\C=C\C(C)=C\C(=O)O)C(C)(C)CCC1 [Agent 9cisRA, 9cis retinoic acid]",−32.3%,6.7 ± 0.2,,,+ (No effect <20% inhibition of surviving cell population),30,,,30%,13.8 ± 0.5^c,4.4 ± 1.2,−53.5,4.6 ± 0.1,4.6 ± 0.1^c,60,60,G1 arrest,18.5 ± 0.2,G1 arrest,22.1 ± 0.6^c,
"Cc1c(-c2cnccn2)ssc1=S [OLT, Oltipraz]",+8.1%,10.7 ± 0.2,,,+ (No effect <20% inhibition of surviving cell population),2,,,2%,1.0 ± 0.2^d,15.8 ± 1.8,−15.1,8.4 ± 0.4,8.4 ± 0.4,25,25,"S,G2M arrest",7.2 ± 0.1,"S,G2M arrest",1.2 ± 0.1^d,
"CC1=C(CC(=O)O)c2cc(F)ccc2/C1=C\c1ccc([S+](C)[O-])cc1 (stereo not shown) [SUL, Sulindac]",−23.2%,7.6 ± 0.3,,,+ (No effect <20% inhibition of surviving cell population),30,,,30%,6.6 ± 0.4^d,0.5 ± 0.3,−61.6,3.8 ± 0.2,3.8 ± 0.2^c,70,70,,13.9 ± 0.5,G1arrest,13.9 ± 0.8^c,"Cell Population Doubling at Day 5 Post-Seeding (Apc [+/−] 1638NCOL cells [1]; 1638NCOL (Apc [+/−]), SUL 1 μM): 4.8 ± 0.6; Cell Population Doubling at Day 5 Post-Seeding (Apc [+/−] 1638NCOL cells [1]; 1638NCOL (Apc [+/−]), SUL 10 μM): 4.4 ± 0.4; Cell Population Doubling at Day 5 Post-Seeding (Apc [+/−] 1638NCOL cells [1]; 1638NCOL (Apc [+/−]), SUL 100 μM): 2.3 ± 0.3; Cytostatic growth arrest response (decrease in cell population doubling) in Apc [+/−] cells as compared to Apc [+/+] cells (Apc [+/−] 1638NCOL cells [1]; 1638NCOL versus C57COL): 2-3 fold; inhibition at 1 µM (Apc [+/−] 1638NCOL cells [1]; Mus musculus, 120 h, 1638NCOL (Apc [+/−]), SUL 1 μM, day 5): 34.2%; inhibition at 10 µM (Apc [+/−] 1638NCOL cells [1]; Mus musculus, 120 h, 1638NCOL (Apc [+/−]), SUL 10 μM, day 5): 39.7%; inhibition at 100 µM (Apc [+/−] 1638NCOL cells [1]; Mus musculus, 120 h, 1638NCOL (Apc [+/−]), SUL 100 μM, day 5): 68.5%; inhibition at 1 µM (C57COL (Apc [+/+]) cells; Mus musculus, 120 h, SUL 1 μM, day 5): 10.2%; inhibition at 10 µM (C57COL (Apc [+/+]) cells; Mus musculus, 120 h, SUL 10 μM, day 5): 15.4%; inhibition at 100 µM (C57COL (Apc [+/+]) cells; Mus musculus, 120 h, SUL 100 μM, day 5): 71.8%; Cell Population Doubling at Day 5 Post-Seeding (C57COL (Apc [+/+]) cells; SUL 1 μM): 3.5 ± 0.4; Cell Population Doubling at Day 5 Post-Seeding (C57COL (Apc [+/+]) cells; SUL 10 μM): 3.3 ± 0.7; Cell Population Doubling at Day 5 Post-Seeding (C57COL (Apc [+/+]) cells; SUL 100 μM): 1.1 ± 0.5"
"CC/C(=C(\c1ccccc1)c1ccc(OCCN(C)C)cc1)c1ccccc1 [TAM, Tamoxifen]",−23.2%,7.6 ± 0.4,−28.3,7.1 ± 0.2,+ (No effect <20% inhibition of surviving cell population),20,30,+,20-30%,2.7 ± 0.9^d,,,,,,,"S,G2M arrest",,,,"Cell cycle phase (Apc [+/−] 1638NCOL cells [3]; 10 μM): S,G2M arrest; G0/G1:S + G2/M ratio (aneuploid cell cycle progression) (Apc [+/−] 1638NCOL cells [3]; 10 μM): 1.8 ± 0.8^d"

# — patent publication US20040029196A1, “Epithelial cell lines from gene knockout mice and methods of use thereof” (priority 2001, published 2004)
